According to patent US20120225889A1, “USE OF MACROCYCLIC LACTONE DERIVATIVES FOR THE TREATMENT OF INFLAMMATORY DISORDERS” (PIRAMAL LIFE SCIENCES LIMITED, priority 2010, published 2012):

Legend:
[1] = tested on: DBA/1J mice with collagen induced arthritis; assay: Collagen-induced arthritis in mice; format: in vivo; details: compound of example 7 5 mg/kg, s.c., n=10; Enbrel 3 mg/kg, s.c., n=6; vehicle control 15.14+1.0
Experimental: The experiment was designed as in reference, J. Experimental Medicine, 162, 637-646 (1985), the disclosure of which is incorporated by reference for the teaching of the experiment.
Male DBA/1J mice with body weight range of 18-22 g, aged 8-10 weeks were immunized with an emulsion equivalent to 200 μg of type II collagen (Elastin products, USA) in Freund's Complete Adjuvant (Sigma, USA), injected intradermally at the base of the tail. The animals were boosted with 200 μg of freshly prepared typeII collagen emulsion emulsified in Freund's Complete Adjuant (Sigma, USA) on day 21. A group of naïve mice was also maintained alongside. Naïve animals are the animals which are neither immunized for induction of arthritis nor do they receive any treatment. This group is maintained to take care of the normal changes in the paw thickness with age.
From day 23, mice were examined daily once for the signs of rheumatoid arthritis, using the articular index and paw thickness as parameters. Articular index scoring was performed employing the following criteria:
• 0: No redness or swelling • 1: Redness, but no swelling • 2: Redness and swelling of the paw • 3: Redness and severe swelling of the paw Hind limbs: Scale 0-4 • 0: No redness or swelling • 1: Redness and mild swelling of paw • 2: Redness and moderate swelling of paw and/or swelling of at least one of the digits • 3: Redness and moderate/severe swelling of paw, swelling of ankle joint and/or swelling of one or more digits • 4: Redness and severe swelling of paw, digits and ankle joint, with joint stiffness Mice with a minimum hind paw score of 2, of even one paw, were inducted into the study. Mice were randomized into the various study groups, each group having at least eight animals, and were administered the vehicle (0.5% CMC, 10 mL/kg p.o. and s.c. twice daily), the test compound (5 mg/kg, p.o. and s.c., twice daily) and standard compound Enbrel (Wyeth Limited, UK), 3 mg/kg, s.c., once daily. The test compound was administered as a suspension in CMC. The requisite quantity of the compound was accurately weighed and was hand-pulverized using pestle-mortar. After mixing with minimum quantity of Tween 80 necessary to wet the compound, requisite quantity of 0.5% CMC solution was added and the compound was ground with CMC till the uniform suspension was obtained. Standard compound ‘Enbrel’ was used as an aqueous solution. The dosing of the compounds was done for 12 continuous days.
The following parameters were observed and recorded daily, • 1. Body weight • 2. Articular index • 3. Paw thickness of hind limbs only, in mm using a tension free calipers • 4. Any significant observation regarding the condition of the animals.
On 13th day morning, 1 h after the compound treatment, the animals were sacrificed, blood withdrawn, and plasma collected for drug level analyses. Also, the hind limbs of all the animals were preserved for histopathological evaluations.

IL-6 [2] = assay: Cytokine release assay in hPBMCs: IL-6; format: cell-based; details: Homo sapiens; Table 3: PHA-PMA induced hPBMC's, 48 h; read-out: IL-6 IC50
Experimental: (§1) hPBMCs were obtained from healthy donors by centrifugation of heparinized venous blood over Ficoll/Hypaque solution (Histopaque-1077, Sigma, USA). Isolated hPBMCs were suspended in RPMI 1640 culture medium supplemented with 10% FBS and seeded at a density of 50,000 cells/well in a 96-well plate (Nunc, USA). The cells were incubated at 37° C., 5% CO2 for a period of 24 h. These cells were used for the lymphocyte proliferation as well as cytokine release assay.
(§2) The plated cells were treated with different concentrations of the test compound (prepared as mM stock in DMSO and diluted with DMSO to achieve the following final concentrations in the assay: 100, 10, 1, 0.1, 0.01, 0.001, 0.0001, 0.00001 and 0.000001 μM) and incubated for 30 min. The cells were then stimulated with PHA (prepared as 1 mg/mL stock in RPMI 1640 culture medium and used at a final concentration of 5 μg/mL). FK506 was used as a standard. The plates were incubated at 37° C., 5% CO2 for 48 h. The cytokines in the supernatant collected were detected using ELISA kit (BD biosciences, USA). The cytokines evaluated in the assay were TNF-α, IL-2, IL-6, and IFN-γ.

IL-6 [3] = assay: Screening in LPS stimulated THP-1 cells: IL-6; format: cell-based; details: Homo sapiens, 24 h, ELISA
Experimental: (§3) IL-6 (BD Biosciences, USA) production by LPS (Escherchia coli 0127:B8, Sigma, USA) in THP-1 cells (ATCC number: TIB202) was designed as in reference, Journal of Immunology, 151, 5631-5638, (1993), the disclosure of which is incorporated by reference for the teaching of the assay.
(§4) THP-1 cells were cultured in RPMI 1640 culture medium (Gibco BRL, UK) containing 100 U/mL penicillin and […] streptomycin, (100× solution, Sigma, USA) containing 10% FBS (JRH Biosciences, USA). 25,000 cells were seeded per well in 96-well plate (Nunc, USA). The cells were differentiated with PMA (Sigma, USA, prepared as 100 μg/mL stock in RPMI and was diluted to 5 ng/mL). The test compound (prepared as 20 mM stock in DMSO and diluted with DMSO to achieve the following final concentrations in the assay: 100, 10, 1, 0.1, 0.01, 0.001 and 0.0001 μM) or vehicle (0.5% DMSO) were added to the cells and the cells were incubated for 30 min at 37° C. LPS (Sigma, USA, prepared as 1 mg/mL stock in PBS) was added to achieve a final concentration of 1 μg/mL. Plates were incubated at 37° C. for 24 h at 5% CO2. Supernatants were harvested, and assayed for TNF-α and IL-6 by ELISA as described by the manufacturer (BD Biosciences, USA). Percent inhibition of cytokine release compared to the control was calculated. The IC50 values were calculated by a nonlinear regression method.

TNF-α [4] = assay: Screening in LPS stimulated THP-1 cells: TNF-α; format: cell-based; details: Homo sapiens, 24 h, ELISA
Experimental: as §3, §4

TNF-α [5] = assay: Cytokine release assay in hPBMCs: TNF-α; format: cell-based; details: Homo sapiens; Table 3: PHA-PMA induced hPBMC's, 48 h; read-out: TNF-α IC50
Experimental: as §1, §2

IFN-γ = assay: Cytokine release assay in hPBMCs: IFN-γ; format: cell-based; details: Homo sapiens; Table 3: PHA-PMA induced hPBMC's, 48 h; read-out: IFN-γ IC50
Experimental: as §1, §2

IL-2 = assay: Cytokine release assay in hPBMCs: IL-2; format: cell-based; details: Homo sapiens; Table 3: PHA-PMA induced hPBMC's, 48 h; read-out: IL-2 IC50
Experimental: as §1, §2

IL-6 [6] = assay: Human monocyte assay (LPS-induced): IL-6; format: cell-based; details: LPS stimulated human monocytes, 5 h
Excerpt: The assay was designed as in reference, Physiological Research, 52, 593-598, (2003), the disclosure of which is incorporated by reference for the teaching of the assay.
The objective of the assay is to determine whether compounds of the present invention—mediated inhibition of LPS-induced cytokines from monocytic THP-1 cell line translates to physiologically relevant human cells. Accordingly, the effect of compounds of the present invention on LPS—induced cytokine production from freshly isolated human monocytes was ascertained.
Peripheral blood was collected from healthy donors into potassium EDTA vacutainer tubes (BD Biosciences, USA). hPBMCs were isolated using density gradient separation (Histopaque-1077; Sigma, USA) and suspended in assay medium which is RPMI culture medium (Sigma, USA) containing 10% heat inactivated FBS (JRH Biosciences, Australia), 100 U/mL penicillin (Sigma, USA) and […] streptomycin (Sigma, USA). Monocytes in the hPBMCs were counted using a Coulter Counter following which the cells were resuspended at 2×10^5 monocytes/mL of assay medium. A cell suspension containing 2×10^4 monocytes was aliquoted per well of a 96-well plate (Nunc, USA). Subsequently, the hPBMCs were incubated for 4-5 h at 37° C., 5% CO2. During the incubation, the monocytes adhered to the bottom of 96-well plate. Following the incubation, the non-adherent lymphocytes were washed and assay medium was added to adherent monocytes. After 48 h of incubation at 37° C., 5% CO2, monocytes were pre-treated with various concentrations of test compound (prepared as 20 mM stock in DMSO; 1 μL of […] concentrated solution of test compound was dissolved in 200 μL cell suspension to achieve a final concentration of 0.03, 0.1, 0.3, 1, 3, 10, 30 and 100 μM) or vehicle (0.5% DMSO) or 10 μM dexamethasone (standard IL-6 and TNF-α inhibitor, Sigma, USA) for 30 min at 37° C., 5% CO2 and stimulated with 1 μg/mL LPS (Escherchia coli 0111:B4, Sigma, USA). The cells were then incubated for 5 h at 37° C., 5% CO2 following which supernatants were collected, stored at −70° C. and were assayed later for IL-6, and TNF-α by ELISA (OptiEIA ELISA sets, BD Biosciences, USA). The IC50 values were calculated by a nonlinear regression method using Graph Pad software (Prism 3.03).

| Compound | Histological score of the section of paws [1] | IC50 (IL-6 [2]) | IC50 (IL-6 [3]) | IC50 (TNF-α [4]) | IC50 (TNF-α [5]) | IC50 (IFN-γ) | IC50 (IL-2) | IC50 (IL-6 [6]) |
| --- | --- | --- | --- | --- | --- | --- | --- | --- |
| Enbrel | 5.8+0.95 | – | – | – | – | – | – | – |
| C/C=C/C(O)C(C)/C=C/C(=NOCC(=O)N1CCN(C)CC1)C(C)C(O)C(C)C1OC(=O)/C(OC)=C/C(C)=C/C(C)C(O)C(CC)C(O)C(C)C/C(C)=C/C=C/C1OC (stereo in doubt) [Compound of example 11, (3Z,5E,13E,15E)-18-((5Z,6E,10E)-3,9-Dihydroxy-4,8-dimethyl-5-(2-(4-methylpiperazin-1-yl)-2-oxoethoxyimino)dodeca-6,10-dien-2-yl)-9-ethyl-8,10-dihydroxy-3,17-dimethoxy-5,7,11,13-tetramethyloxacyclooctadeca-3,5,13,15-tetraen-2-one] | – | 10 nM | 300 nM | > 30000 nM | 50 nM | 5000 nM | 50 nM | > 10000 nM |
| C/C=C/C(O)C(C)/C=C/C(=O)NC(C)C(O)C(C)C1OC(=O)/C(OC)=C/C(C)=C/C(C)C(O)C(CC)C(O)C(C)C/C(C)=C/C=C/C1OC (stereo not drawn) [Compound of example 16, (2E,6E)-N-(4-((4E,6E,14E,16Z)-11-Ethyl-10,12-dihydroxy-3,17-dimethoxy-7,9,13,15-tetramethyl-18-oxooxacyclooctadeca-4,6,14,16-tetraen-2-yl)-3-hydroxypentan-2-yl)-5-hydroxy-4-methylocta-2,6-dienamide] | – | – | 30 nM | > 100000 nM | – | – | – | – |
| C/C=C/C(O)C(C)/C=C/C(=NOCC(=O)N1CCC(N2CCCCC2)CC1)C(C)C(O)C(C)C1OC(=O)/C(OC)=C/C(C)=C/C(C)C(O)C(CC)C(O)C(C)C/C(C)=C/C=C/C1OC (stereo in doubt) [Compound of example 14, (3Z,5E,13E,15E)-18-((5Z,6E,10E)-5-(2-(1,4′-Bipiperidin-1′-yl)-2-oxoethoxyimino)-3,9-dihydroxy-4,8-dimethyldodeca-6,10-dien-2-yl)-9-ethyl-8,10-dihydroxy-3,17-dimethoxy-5,7,11,13-tetramethyloxacyclooctadeca-3,5,13,15-tetraen-2-one] | – | 10 nM | 130 nM | 18000 nM | 20 nM | 20 nM | 5 nM | 150 nM |
| C/C=C/C(O)C(C)/C=C/C(=NOCC(=O)N1CCCCC1)C(C)C(O)C(C)C1OC(=O)/C(OC)=C/C(C)=C/C(C)C(O)C(CC)C(O)C(C)C/C(C)=C/C=C/C1OC (stereo in doubt) [Compound of example 13, (3Z,5E,13E,15E)-18-((5Z,6E,10E)-3,9-Dihydroxy-4,8-dimethyl-5-(2-oxo-2-(piperidin-1-yl)ethoxyimino)dodeca-6,10-dien-2-yl)-9-ethyl-8,10-dihydroxy-3,17-dimethoxy-5,7,11,13-tetramethyloxacyclooctadeca-3,5,13,15-tetraen-2-one] | – | 500 nM | 200 nM | > 30000 nM | 20 nM | 10000 nM | 200 nM | 1400 nM |
| C/C=C/C(O)C(C)/C=C/C(=NOCC(=O)O)C(C)C(O)C(C)C1OC(=O)/C(OC)=C/C(C)=C/C(C)C(O)C(CC)C(O)C(C)C/C(C)=C/C=C/C1OC (stereo in doubt) [Compound of example 10, ((Z)-((6E,10E)-2-((4E,6E,14E,16Z)-11-Ethyl-10,12-dihydroxy-3,17-dimethoxy-7,9,13,15-tetramethyl-18-oxooxacyclooctadeca-4,6,14,16-tetraen-2-yl)-3,9-dihydroxy-4,8-dimethyldodeca-6,10-dien-5-ylidene)aminooxy)acetic acid] | – | 20 nM | 2300 nM | > 30000 nM | 200 nM | 2000 nM | 200 nM | – |
